Experimental findings from patent US20260258051A1, “Camptothecin Compound, Preparation Method Therefor and Use Thereof” (SICHUAN KELUN-BIOTECH BIOPHARMACEUTICAL CO., LTD., priority 2022, published 2026) are described below.

For one series, the system named is HT29 cells. Kind of series: Inhibitory effect on HT29 cell proliferation. Format: cell-based. The settings on record: Homo sapiens, HT-29; HT29, 72 h incubation, Cell Counting-Lite 2.0. The procedure:
(1) Cell plating: First, tumor cells HT29 were cultured with corresponding culture medium, the cells were digested with trypsin and centrifuged, then the cells were resuspended and counted, and the cells were adjusted to an appropriate concentration for plating.
(§1) Co-incubation of the compounds of the present invention and tumor cells: 90 μL of cell suspension was added to 96-well plates respectively. After cell adherence, 10 μL of bioactive molecules (compounds of the present invention) diluted with culture medium were added into the wells of the above plates, and incubated for 72 h.
(§2) In vitro cell viability detection: After the incubation, 50 μL of Cell Counting-Lite™ 2.0 reagent (Vazyme) was added to each well, shaken and mixed well in the dark, and reacted for 10 minutes before testing. Microplate reader (manufacturer: BMG, Model: PHERA Star-FS) was used for reading. The culture wells without cells were used as the background RLU, and the culture wells with cells but no compound were used as the cell control RLU. Cell inhibition rate=1−(sample RLU−background RLU)/(cell control RLU−background RLU)×100%. The half-inhibition concentration (IC50) of compound was calculated by fitting the curve according to the four-parameter model.

In the next series the test system is HCC1806 cells. Put plainly: Inhibitory effect on HCC1806 cell proliferation. Format: cell-based. The settings on record: Homo sapiens; HCC1806, 72 h incubation, Cell Counting-Lite 2.0. The procedure:
(1) Cell plating: First, tumor cells HCC1806 were cultured with corresponding culture medium, the cells were digested with trypsin and centrifuged, then the cells were resuspended and counted, and the cells were adjusted to an appropriate concentration for plating.
as §1, §2

In another series the test system is NCI-H358 cells. Put plainly: Inhibitory effect on NCI-H358 cell proliferation. The settings on record: Homo sapiens; NCI-H358, 72 h incubation, Cell Counting-Lite 2.0. Format: cell-based. The procedure:
(1) Cell plating: First, tumor cells NCI-H358 were cultured with corresponding culture medium, the cells were digested with trypsin and centrifuged, then the cells were resuspended and counted, and the cells were adjusted to an appropriate concentration for plating.
as §1, §2

The test system of a further series is NCI-N87 cells. Put plainly: Inhibitory effect on NCI-N87 cell proliferation. Format: cell-based. As to conditions: Homo sapiens, NCI-N87, 72 h, read-out: IC50 (nM), inhibitory activity on NCI-N87 cell proliferation. The procedure:
(1) Cell plating: First, tumor cells NCI-N87 were cultured with corresponding culture medium, the cells were digested with trypsin and centrifuged, then the cells were resuspended and counted, and the cells were adjusted to an appropriate concentration for plating.
as §1, §2

The subject of another series is MDA-MB-231 cells. Kind of series: Inhibitory effect on MDA-MB-231 cell proliferation. The class given is cell-based. As to conditions: Homo sapiens; MDA-MB-231, 72 h incubation, Cell Counting-Lite 2.0. The procedure: (1) Cell plating: First, tumor cells MDA-MB-231 were cultured with corresponding culture medium, the cells were digested with trypsin and centrifuged, then the cells were resuspended and counted, and the cells were adjusted to an appropriate concentration for plating.
as §1, §2

Another series has as its system Jeko-1 cells. Kind of series: Inhibitory effect on Jeko-1 cell proliferation. The class given is cell-based. The settings on record: Homo sapiens; Jeko-1, 72 h incubation, Cell Counting-Lite 2.0. How it is done:
(1) Cell plating: First, tumor cells Jeko-1 were cultured with corresponding culture medium, the cells were resuspended and counted, and finally the cells were adjusted to an appropriate concentration for plating.
as §1, §2

The next series has as its system MDA-MB-453 cells. Put plainly: Inhibitory effect on MDA-MB-453 cell proliferation. Format: cell-based. The settings on record: Homo sapiens; MDA-MB-453, 72 h incubation, Cell Counting-Lite 2.0. How it is done:
(1) Cell plating: First, tumor cells MDA-MB-453 were cultured with corresponding culture medium, the cells were digested with trypsin and centrifuged, then the cells were resuspended and counted, and the cells were adjusted to an appropriate concentration for plating.
as §1, §2

Series [1] in a line: Permeability test in MDCK cell model. Format: in vitro ADME. As to conditions: dog; for efflux ratio at 120 min, 2 μM: pH 7.4, 2.00 μM, Papp(B→A)/Papp(A→B), absence of P-gp inhibitor, read-out: Efflux ratio (ERa). The procedure: (§3) The MDCK cell model was used to evaluate the permeability of the compounds, the LC-MS/MS method was used to determine the concentration of the substance to be tested, and the apparent permeability coefficient (Papp) and efflux ratio were calculated [Efflux ratio=Papp(B→A)/Papp(A→B)].
(§4) Complete culture medium: 10% fetal bovine serum and 1% penicillin/streptomycin were added to MEM culture medium.
(§5) Digestive solution: 0.05% trypsin-EDTA.
(§6) HBSS buffer: HBSS containing Ca^2+, Mg^2+.
(§7) Permeating solution: HBSS containing 10 mM Hepes, 4% BSA, pH 7.4.
(§8) Compound stock solution: a certain amount of the compound to be tested was weighed and formulated with DMSO to prepare a 10 mM stock solution.
(§9) MDCK cells (26th generation) in the logarithmic growth phase were digested and dispersed evenly with 0.05% trypsin-EDTA, and then inoculated into the Transwell chamber at 3*10^5 cells/cm^2, with 200 μL on the A side and 1000 μL on the B side. After inoculation, the medium was changed once every day and the culturing was carried out for 3 to 4 days.
(§10) The cell culture medium was discarded by pipetting, then washing was carried out three times with the permeating solution. 200 μL of permeating solution was added to A side and 1000 μL of permeating solution was added to B side. A voltage resistance meter was used to measure the cell transmembrane resistance (TEER). After the TEER value of the cells was measured, the permeating solution on both sides was discarded by pipetting, and the solution was added. After 120 minutes, 150 μL of samples were taken from A side and B side, respectively, and frozen at −80° C. before testing. Then, 10 μg/ml Fluorescent Yellow was added to A side. After incubation for 30 minutes, 100 μL of solution at B side was pipetted and added into a 96-well white plate. The fluorescence value was measured at the wavelengths of Ex=485 nm and Em=530 nm using a microplate reader, and the permeance was calculated (which was less than 1%).
(§11) 80 μL of the compound to be tested was taken, added to 320 μL of acetonitrile solution containing internal standard (30 ng/mL Tolbutamide), vortexed, and centrifuged for 10 min (4000 rpm, 4° C.), and the supernatant was taken for LC-MS/MS analysis.
(§12) Excel 2013 was used to calculate Papp values and Papp ratio of B side→A side to A side→B side, and the recovery rates of each Control Compound and the compound to be tested were calculated.
(§13) Apparent permeability coefficient (Papp) of compound was calculated according to the following formula:
(§14) C0 was the initial concentration (μM) of the drug to be tested at the donor, (dCr/dt)×Vr was the rate (μM/s) at which the drug to be tested appeared at the receiver, Vr was the solution volume (mL) at the receiver, and A was the surface area (cm^2) of polycarbonate membrane.
(§15) Evaluation criteria: Low permeability: Papp≤0.5 (×10^−6 cm/s) • Medium permeability: 0.5<Papp<2.5 (×10^−6 cm/s) • High permeability: Papp≥2.5 (×10^−6 cm/s)
(§16) Efflux ratio (ER) was calculated according to Papp:
(§17) [formula] • wherein, Papp(B→A) was the apparent permeability coefficient of the drug to be tested from the BL (baso-lateral) end to the AP (apical) end, and Papp (A→B) was the apparent permeability coefficient of the drug to be tested from the AP end to the BL end.
(§18) • Probably being an efflux transporter substrate (Probably): ERa≥2 and ERa/ERi>2 • Likely being an efflux transporter substrate (Likely): ERa≥2 • Unlikely or impossibly being an efflux transporter substrate (Poor or non): ERa<2 • wherein, ERi and ERa were the efflux ratios of the compound to be tested in the presence and absence of P-gp inhibitor, respectively.

The test system of a further series is MDCK cells. Put plainly: Permeability test in MDCK cell model. Format: in vitro ADME. How it is done:
as §3, §4, §5, §6, §7, §8, §9, §10, §11, §12, §13, §14, §15, §16, §17, §18

Series [2] is described as follows: Liver microsome stability test (human). As to conditions: human liver microsomes 0.5 mg/ml, 1 μM, 15 min, NADPH. Format: in vitro ADME. How it is done:
(§19) Liver microsomes were used as an in vitro model to evaluate the metabolic stability of compounds in human and monkey liver microsomes.
Mixed human liver microsomes: Xenotech, USA
(§20) The positive compound testosterone or the tested substance (liver microsome solution, 50 μL) was mixed with PBS (25 μL). After pre-incubation (37° C.) for 5 min, NADPH (25 μL) was added to make the final concentration of the positive compound or the tested substance 1 μM, the final concentration of human liver microsomal protein was 0.5 mg/ml, the final concentration of monkey liver microsomal protein was 1 mg/ml, the tested substance group and the positive compound group were incubated for 0 min, 15 min. After being reacted for corresponding time, 300 μL of ice-cold acetonitrile containing internal standard was added to terminate the reaction, vortexed, and stored at −80° C. for later analysis. All incubated samples were double samples.
(§21) The tested compound was vortexed for 1 min, and centrifuged for 10 min (4° C., 4000 rpm), and 300 μL of the supernatant was taken for LC-MS/MS analysis.
(§22) Excel software was used to calculate the remaining rate (%) of the drug in primary form in the incubation system: […]
For orientation: Liver microsomes are a subcellular fraction often used to study metabolism.

Series [3] in a line: Liver microsome stability test (monkey). Format: in vitro ADME, cynomolgus. The settings on record: monkey liver microsomes 1 mg/ml, 1 μM, 15 min, NADPH. The procedure: as §19
Mixed male cynomolgus liver microsomes: RILD, China
as §20, §21, §22

Like-named read-outs stand apart in the source and are kept apart here.

The term Papp A→B denotes how fast a substance crosses the layer from the apical side. The Papp B→A is the apparent permeability from the basolateral to the apical side of a cell layer. Take `CC[C@@]1(O)C(=O)OCc2c1cc1n(c2=O)Cc2c-1nc1cc(F)c(Cl)cc1c2CNC(=O)CO` [Compound 2-1, (S)—N-((9-chloro-4-ethyl-8-fluoro-4-hydroxy-3,14-dioxy-3,4,12,14-tetrahydro-1H-pyrano[3′,4′:6,7]indolizino[1,2-b]quinolin-11-yl)methyl)-2-hydroxyacetamide]: the IC50 with HT29 cells came out at 14.6 nM; with HCC1806 cells it was 8.08 nM; in the series on NCI-H358 cells, 121 nM; with NCI-N87 cells, 81.6 nM; in the series with MDA-MB-231 cells, 38.5 nM; with Jeko-1 cells, 1.62 nM. Besides, the IC50 with MDA-MB-453 cells was determined as 156 nM. In series [1] (pH 7.4), this compound yielded a Papp A→B at 120 min, 2 μM of 0.52 ×10⁻⁶ cm/s. Also, the Papp B→A at 120 min, 2 μM in series [1] (pH 7.4) came to 0.42 ×10⁻⁶ cm/s. The efflux ratio at 120 min, 2 μM in [1] amounted to 0.81. Moreover, the “Permeability class according to the Papp(A→B) results” value in the series with MDCK cells is reported as “medium-permeability”. In the series with MDCK cells (2.00 μM), the “Efflux transporter substrate evaluation from efflux ratio” value was “not efflux transporter substrates or were weak efflux transporter substrates”.
With `CC[C@@]1(O)C(=O)OCc2c1cc1n(c2=O)Cc2c-1nc1cc(F)c(C)c3c1c2[C@@H](NC(N)=O)CC3` [Compound 7-2, 1-((1S,9S)-9-ethyl-5-fluoro-9-hydroxy-4-methyl-10,13-dioxy-2,3,9,10,13,15-hexahydro-1H,12H-benzo[de]pyrano[3′,4′:6,7]indolizino[1,2-b]quinolin-1-yl)urea], the IC50 worked out at 22.8 nM with HT29 cells; 18.6 nM in the series on HCC1806 cells; 287 nM in the series on NCI-H358 cells; 80.8 nM in the series on NCI-N87 cells; 30.6 nM in the series on MDA-MB-231 cells; 2.17 nM with Jeko-1 cells. The compound further returned an IC50 in the series on MDA-MB-453 cells of 203 nM.
With `CC[C@@]1(O)C(=O)OCc2c1cc1n(c2=O)Cc2c-1nc1cc(F)c(C)c3c1c2[C@@H](NC(=O)C[C@H](C)O)CC3` [Control Compound 4, reference compound], the efflux ratio at 120 min, 2 μM in series [1] was 21.7. Further, the Papp A→B at 120 min, 2 μM in [1] (pH 7.4, concentration 2.00 μM, 120 minutes, A to B, read-out: Papp A to B) is 0.24 ×10⁻⁶ cm/s. Besides, the Papp B→A at 120 min, 2 μM in [1] (pH 7.4, concentration 2.00 μM, 120 minutes, B to A, read-out: Papp B to A) is 5.25 ×10⁻⁶ cm/s. Moreover, in the series on MDCK cells (2.00 μM), the “Efflux transporter substrate evaluation from efflux ratio” value was “could be efflux transporter substrates” and the “Permeability class according to the Papp(A→B) results” value is listed as “low-permeability”. Besides, in [2], the “Remaining rate (%) Human” value came to 64.6%. In addition, the “Remaining rate (%) Monkey” value in [3] is listed as 65.1%.
